± gives the expanded uncertainty stated by the source.
Details: for mass density / speed of sound / viscosity: 101.33 kPa, Liquid; for viscosity: Concentric cylinders viscometry

SMILES	surface tension liquid-gas (303 K) [mN/m]	mass density (303 K) [kg/m3]	speed of sound (303 K) [m/s]	surface tension liquid-gas (308 K) [mN/m]	mass density (308 K) [kg/m3]	speed of sound (308 K) [m/s]	surface tension liquid-gas (313 K) [mN/m]	mass density (313 K) [kg/m3]	speed of sound (313 K) [m/s]	surface tension liquid-gas (318 K) [mN/m]	mass density (318 K) [kg/m3]	speed of sound (318 K) [m/s]	surface tension liquid-gas (323 K) [mN/m]	mass density (323 K) [kg/m3]	speed of sound (323 K) [m/s]	surface tension liquid-gas (328 K) [mN/m]	mass density (328 K) [kg/m3]	speed of sound (328 K) [m/s]	mass density (333 K) [kg/m3]	speed of sound (333 K) [m/s]	other results
CCCCn1cc[n+](C)c1.F[P-](F)(F)(F)(F)F [1-butyl-3-methylimidazolium hexafluorophosphate]	45.3 ± 3.4	1359.4 ± 5.2	1433 ± 12	45 ± 3.4	1358.2 ± 5.4	1417 ± 12	44.7 ± 3.4	1353.2 ± 5.5	1408 ± 12	44.4 ± 3.4	1349.8 ± 5.6	1395 ± 12	44.1 ± 3.4	1346.8 ± 5.7	1384 ± 12	43.8 ± 3.4	1343.8 ± 5.9	1374 ± 12	1340.6 ± 6	1363 ± 12	viscosity (303 K): 190 ± 5 mPa·s; viscosity (308 K): 150 ± 4 mPa·s; viscosity (313 K): 132 ± 3 mPa·s; viscosity (318 K): 106 ± 3 mPa·s; viscosity (323 K): 90 ± 2 mPa·s; viscosity (328 K): 75 ± 2 mPa·s; surface tension liquid-gas (333 K): 43.5 ± 3.3 mN/m; viscosity (333 K): 58 ± 2 mPa·s
CCn1cc[n+](C)c1.CS(=O)(=O)[O-] [1-ethyl-3-methylimidazolium methanesulfonate]	47.8 ± 3.8	1247 ± 14	1796 ± 15	47.4 ± 3.7	1243.2 ± 14	1778 ± 15	47 ± 3.7	1240.2 ± 14	1764 ± 15	46.7 ± 3.7	1237.6 ± 14	1752 ± 15	46.1 ± 3.7	1234.4 ± 14	1738 ± 15	45.7 ± 3.6	1232.4 ± 14	1727 ± 15	1230.2 ± 14	1708 ± 15	viscosity (303 K): 120 ± 20 mPa·s; viscosity (308 K): 87 ± 20 mPa·s; viscosity (313 K): 63 ± 20 mPa·s; viscosity (318 K): 48 ± 20 mPa·s; viscosity (323 K): 37 mPa·s; viscosity (328 K): 29 mPa·s; surface tension liquid-gas (333 K): 45.4 ± 3.6 mN/m; viscosity (333 K): 20 mPa·s
CCCCCCCCOS(=O)(=O)[O-].CCCCn1cc[n+](C)c1 [1-butyl-3-methylimidazolium octyl sulfate]	35.7 ± 3	1060.2 ± 10	1461 ± 13	35.2 ± 2.9	1057.8 ± 11	1450 ± 13	34.9 ± 2.9	1053.2 ± 11	1430 ± 13	34.7 ± 2.9	1050.8 ± 11	1419 ± 13	34.3 ± 2.9	1046.4 ± 11	1406 ± 13	33.9 ± 2.8	1042.2 ± 11	1391 ± 13	1039.8 ± 11	1380 ± 13	–

Source: the NIST ThermoML archive (doi:10.1021/je5000617)
